Experimental data taken from the kinase profiling compilation of Christmann-Franck et al. (2016).

Assays:
Test in all cases: KINOMEscan competition binding
Settings in all cases: compound 10.0 µM
FGFR1 (human) = FGFR1 (human) (UniProt P11362)
PIK3CG (human) = PIK3CG (human) (UniProt P48736)
TLK2 (human) = TLK2 (human) (UniProt Q86UE8)
HIPK3 (human) = HIPK3 (human) (UniProt Q9H422)
CDK17 (human) = CDK17 (human) (UniProt Q00537)
NEK1 (human) = NEK1 (human) (UniProt Q96PY6)
RPS6KA3 KD1 (human) = RPS6KA3 KD1 (human) (UniProt P51812)
CDK9 (human) = CDK9 (human) (UniProt P50750)
TAOK3 (human) = TAOK3 (human) (UniProt Q9H2K8)
CAMK1D (human) = CAMK1D (human) (UniProt Q8IU85)
Sequence of CAMK1D (human) (Q8IU85 whole entry, looked up): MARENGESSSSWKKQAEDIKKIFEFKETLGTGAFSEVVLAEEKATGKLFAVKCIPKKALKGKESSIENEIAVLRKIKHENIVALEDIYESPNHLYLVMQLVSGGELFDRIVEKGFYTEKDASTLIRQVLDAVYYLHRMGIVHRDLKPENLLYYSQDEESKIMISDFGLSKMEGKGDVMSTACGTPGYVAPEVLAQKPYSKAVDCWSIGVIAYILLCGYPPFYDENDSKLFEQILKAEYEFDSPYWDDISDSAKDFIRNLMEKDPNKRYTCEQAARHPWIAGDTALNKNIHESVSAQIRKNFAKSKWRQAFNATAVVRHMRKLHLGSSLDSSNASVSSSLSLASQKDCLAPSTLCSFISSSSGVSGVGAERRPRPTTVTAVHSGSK

STK10 (human) = STK10 (human) (UniProt O94804)
SBK1 (human) = SBK1 (human) (UniProt Q52WX2)
MYO3B (human) = MYO3B (human) (UniProt Q8WXR4)
PIP4K2C (human) = PIP4K2C (human) (UniProt Q8TBX8)
MATK (human) = MATK (human) (UniProt P42679)
MAPK8 (human) = MAPK8 (human) (UniProt P45983)
Sequence of MAPK8 (human) (P45983 whole entry, looked up): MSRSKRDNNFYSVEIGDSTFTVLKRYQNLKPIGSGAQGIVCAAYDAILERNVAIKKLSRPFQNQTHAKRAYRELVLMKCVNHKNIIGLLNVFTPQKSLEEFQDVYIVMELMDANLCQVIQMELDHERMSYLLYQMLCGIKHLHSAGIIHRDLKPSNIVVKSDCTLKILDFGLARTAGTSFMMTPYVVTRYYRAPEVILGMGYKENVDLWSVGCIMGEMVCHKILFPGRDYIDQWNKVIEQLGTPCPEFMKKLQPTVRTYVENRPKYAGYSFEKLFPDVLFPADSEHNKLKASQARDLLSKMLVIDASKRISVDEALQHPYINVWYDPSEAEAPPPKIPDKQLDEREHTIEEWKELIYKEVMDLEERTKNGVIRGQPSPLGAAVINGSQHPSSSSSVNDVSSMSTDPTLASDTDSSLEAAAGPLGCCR

TNK1 (human) = TNK1 (human) (UniProt Q13470)
STK36 (human) = STK36 (human) (UniProt Q9NRP7)
INSR (human) = INSR (human) (UniProt P06213)
Sequence of INSR (human) (P06213 whole entry, looked up): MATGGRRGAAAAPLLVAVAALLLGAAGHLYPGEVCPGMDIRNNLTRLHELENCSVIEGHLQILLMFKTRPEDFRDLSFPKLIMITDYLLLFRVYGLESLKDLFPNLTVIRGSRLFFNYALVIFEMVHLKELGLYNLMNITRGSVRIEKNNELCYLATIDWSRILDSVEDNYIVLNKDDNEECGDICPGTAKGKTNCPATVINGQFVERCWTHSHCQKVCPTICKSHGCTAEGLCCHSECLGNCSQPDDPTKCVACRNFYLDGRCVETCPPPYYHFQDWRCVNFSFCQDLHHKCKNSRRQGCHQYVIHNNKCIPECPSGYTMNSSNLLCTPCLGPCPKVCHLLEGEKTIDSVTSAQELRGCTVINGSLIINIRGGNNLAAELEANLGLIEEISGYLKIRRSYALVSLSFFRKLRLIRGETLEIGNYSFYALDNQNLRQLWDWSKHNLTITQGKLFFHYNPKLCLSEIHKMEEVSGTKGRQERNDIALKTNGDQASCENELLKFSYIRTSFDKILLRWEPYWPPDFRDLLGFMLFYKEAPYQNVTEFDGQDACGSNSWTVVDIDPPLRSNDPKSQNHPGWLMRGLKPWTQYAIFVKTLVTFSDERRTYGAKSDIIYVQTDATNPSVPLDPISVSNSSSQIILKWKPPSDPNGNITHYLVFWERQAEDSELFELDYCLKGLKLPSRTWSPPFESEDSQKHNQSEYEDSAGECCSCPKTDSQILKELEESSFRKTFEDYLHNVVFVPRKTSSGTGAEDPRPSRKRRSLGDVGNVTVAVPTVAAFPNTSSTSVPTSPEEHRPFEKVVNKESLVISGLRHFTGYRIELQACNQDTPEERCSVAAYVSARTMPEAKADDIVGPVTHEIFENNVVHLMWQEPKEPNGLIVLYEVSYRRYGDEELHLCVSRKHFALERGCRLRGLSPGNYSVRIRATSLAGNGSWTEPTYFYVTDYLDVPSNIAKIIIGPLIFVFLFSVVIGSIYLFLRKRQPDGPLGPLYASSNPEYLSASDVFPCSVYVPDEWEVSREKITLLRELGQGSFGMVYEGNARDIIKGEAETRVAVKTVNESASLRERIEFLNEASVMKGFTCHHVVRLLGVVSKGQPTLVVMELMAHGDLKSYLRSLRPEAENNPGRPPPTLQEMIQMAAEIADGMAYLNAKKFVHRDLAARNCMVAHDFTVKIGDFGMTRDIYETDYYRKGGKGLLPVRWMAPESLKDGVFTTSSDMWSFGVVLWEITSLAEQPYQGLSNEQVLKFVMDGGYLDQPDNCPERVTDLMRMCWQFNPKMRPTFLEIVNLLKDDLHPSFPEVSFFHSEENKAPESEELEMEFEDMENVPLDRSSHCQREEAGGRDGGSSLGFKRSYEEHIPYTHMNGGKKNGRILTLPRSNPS

PRKG2 (human) = PRKG2 (human) (UniProt Q13237)
CDK14 (human) = CDK14 (human) (UniProt O94921)
CAMK2G (human) = CAMK2G (human) (UniProt Q13555)
HIPK1 (human) = HIPK1 (human) (UniProt Q86Z02)
MAP3K3 (human) = MAP3K3 (human) (UniProt Q99759)
KIT (human) = KIT (human) (UniProt P10721)
PLK4 (human) = PLK4 (human) (UniProt O00444)
CLK3 (human) = CLK3 (human) (UniProt P49761)
AURKA (human) = AURKA (human) (UniProt O14965)
STK17A (human) = STK17A (human) (UniProt Q9UEE5)
CDK8 (human) = CDK8 (human) (UniProt P49336)
TNIK (human) = TNIK (human) (UniProt Q9UKE5)
Sequence of TNIK (human) (Q9UKE5 whole entry, looked up): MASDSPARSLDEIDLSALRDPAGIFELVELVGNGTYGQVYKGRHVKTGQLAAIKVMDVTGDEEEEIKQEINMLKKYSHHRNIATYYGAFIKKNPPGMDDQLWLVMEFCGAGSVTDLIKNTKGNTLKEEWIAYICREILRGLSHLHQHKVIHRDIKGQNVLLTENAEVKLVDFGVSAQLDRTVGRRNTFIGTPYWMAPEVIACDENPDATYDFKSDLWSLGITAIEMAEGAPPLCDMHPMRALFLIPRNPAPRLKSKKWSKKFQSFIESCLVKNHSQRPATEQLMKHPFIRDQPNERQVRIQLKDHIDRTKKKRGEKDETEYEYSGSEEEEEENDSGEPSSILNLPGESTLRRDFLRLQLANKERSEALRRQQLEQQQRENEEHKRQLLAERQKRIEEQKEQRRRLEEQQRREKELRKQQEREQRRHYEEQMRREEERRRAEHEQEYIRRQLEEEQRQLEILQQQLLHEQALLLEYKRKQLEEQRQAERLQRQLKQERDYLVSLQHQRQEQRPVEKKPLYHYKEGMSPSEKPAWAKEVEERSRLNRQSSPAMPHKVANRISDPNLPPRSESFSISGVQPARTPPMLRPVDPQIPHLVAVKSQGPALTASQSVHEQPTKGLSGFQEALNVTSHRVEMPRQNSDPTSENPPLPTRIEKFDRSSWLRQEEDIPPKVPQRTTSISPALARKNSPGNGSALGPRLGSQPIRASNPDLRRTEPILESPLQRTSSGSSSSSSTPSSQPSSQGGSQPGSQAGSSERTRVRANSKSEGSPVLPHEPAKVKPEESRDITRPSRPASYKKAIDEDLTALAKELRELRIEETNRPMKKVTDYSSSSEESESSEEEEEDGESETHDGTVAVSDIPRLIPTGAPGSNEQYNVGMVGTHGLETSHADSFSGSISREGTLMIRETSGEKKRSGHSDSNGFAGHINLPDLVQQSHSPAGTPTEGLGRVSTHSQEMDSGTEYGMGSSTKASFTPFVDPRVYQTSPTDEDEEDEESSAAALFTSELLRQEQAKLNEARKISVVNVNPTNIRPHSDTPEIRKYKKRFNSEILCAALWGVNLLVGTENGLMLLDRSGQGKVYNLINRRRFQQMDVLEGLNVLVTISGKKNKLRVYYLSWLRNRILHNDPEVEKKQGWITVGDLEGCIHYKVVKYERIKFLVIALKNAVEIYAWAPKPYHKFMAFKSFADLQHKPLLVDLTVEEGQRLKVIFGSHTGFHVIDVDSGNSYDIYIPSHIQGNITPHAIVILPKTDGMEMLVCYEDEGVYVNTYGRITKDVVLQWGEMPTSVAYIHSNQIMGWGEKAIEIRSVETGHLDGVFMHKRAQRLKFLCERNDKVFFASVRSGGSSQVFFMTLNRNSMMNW

LRRK2 (human) = LRRK2 (human) (UniProt Q5S007)
RPS6KB1 (human) = RPS6KB1 (human) (UniProt P23443)
PLK1 (human) = PLK1 (human) (UniProt P53350)
PAK7 (human) = PAK7 (human) (UniProt Q9P286)
PRKCI (human) = PRKCI (human) (UniProt P41743)
DCLK1 (human) = DCLK1 (human) (UniProt O15075)
CAMK2A (human) = CAMK2A (human) (UniProt Q9UQM7)
TSSK1B (human) = TSSK1B (human) (UniProt Q9BXA7)
CIT (human) = CIT (human) (UniProt O14578)

Sequence of NEK1 (human) (Q96PY6 whole entry, looked up): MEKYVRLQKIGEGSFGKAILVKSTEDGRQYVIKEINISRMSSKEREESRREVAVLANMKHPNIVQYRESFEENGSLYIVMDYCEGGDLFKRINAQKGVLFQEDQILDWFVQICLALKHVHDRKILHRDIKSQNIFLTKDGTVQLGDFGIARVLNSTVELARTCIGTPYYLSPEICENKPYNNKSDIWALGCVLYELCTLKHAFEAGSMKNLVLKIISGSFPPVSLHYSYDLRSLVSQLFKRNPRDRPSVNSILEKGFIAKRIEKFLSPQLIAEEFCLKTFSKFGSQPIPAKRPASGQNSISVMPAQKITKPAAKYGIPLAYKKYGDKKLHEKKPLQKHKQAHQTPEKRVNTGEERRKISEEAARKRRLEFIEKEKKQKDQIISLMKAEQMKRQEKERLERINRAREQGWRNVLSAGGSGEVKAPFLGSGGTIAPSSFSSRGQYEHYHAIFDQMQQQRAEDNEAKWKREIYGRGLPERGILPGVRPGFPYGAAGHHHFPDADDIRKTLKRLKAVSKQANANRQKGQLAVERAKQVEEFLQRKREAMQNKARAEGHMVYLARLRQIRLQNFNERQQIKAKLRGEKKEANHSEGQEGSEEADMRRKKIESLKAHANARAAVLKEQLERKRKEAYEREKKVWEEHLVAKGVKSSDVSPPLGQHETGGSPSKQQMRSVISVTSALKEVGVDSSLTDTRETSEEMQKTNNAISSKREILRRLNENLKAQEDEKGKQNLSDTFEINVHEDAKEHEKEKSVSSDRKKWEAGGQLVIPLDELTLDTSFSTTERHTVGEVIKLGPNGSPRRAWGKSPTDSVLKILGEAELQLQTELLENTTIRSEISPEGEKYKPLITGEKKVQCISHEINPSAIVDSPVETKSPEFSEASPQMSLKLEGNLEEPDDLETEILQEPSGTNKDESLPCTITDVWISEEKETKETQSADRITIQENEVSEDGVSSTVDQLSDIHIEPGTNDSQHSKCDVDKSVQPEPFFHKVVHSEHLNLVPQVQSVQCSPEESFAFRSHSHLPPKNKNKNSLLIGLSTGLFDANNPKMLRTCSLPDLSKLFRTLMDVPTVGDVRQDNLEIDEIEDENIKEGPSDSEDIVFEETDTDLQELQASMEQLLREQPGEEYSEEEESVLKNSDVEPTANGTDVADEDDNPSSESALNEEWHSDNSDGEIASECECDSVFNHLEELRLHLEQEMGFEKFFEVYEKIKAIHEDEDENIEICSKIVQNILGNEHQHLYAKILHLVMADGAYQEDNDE

Row | Structure (SMILES) | kinase still bound, per cent of control (FGFR1 (human)) [%] | kinase still bound, per cent of control (PIK3CG (human)) [%] | kinase still bound, per cent of control (TLK2 (human)) [%] | kinase still bound, per cent of control (HIPK3 (human)) [%] | kinase still bound, per cent of control (CDK17 (human)) [%] | kinase still bound, per cent of control (NEK1 (human)) [%] | kinase still bound, per cent of control (RPS6KA3 KD1 (human)) [%] | kinase still bound, per cent of control (CDK9 (human)) [%] | kinase still bound, per cent of control (TAOK3 (human)) [%] | kinase still bound, per cent of control (CAMK1D (human)) [%] | kinase still bound, per cent of control (STK10 (human)) [%] | kinase still bound, per cent of control (SBK1 (human)) [%] | kinase still bound, per cent of control (MYO3B (human)) [%] | kinase still bound, per cent of control (PIP4K2C (human)) [%] | kinase still bound, per cent of control (MATK (human)) [%] | kinase still bound, per cent of control (MAPK8 (human)) [%] | kinase still bound, per cent of control (TNK1 (human)) [%] | kinase still bound, per cent of control (STK36 (human)) [%] | kinase still bound, per cent of control (INSR (human)) [%] | kinase still bound, per cent of control (PRKG2 (human)) [%] | other results
1 | COc1cc2ncn(-c3cc(OCc4ccccc4C(F)(F)F)c(C(N)=O)s3)c2cc1OC | 43 | 18 | 100 | 77 | 100 | 65 | 22 | 100 | 89 | 100 | 0 | 96 | 100 | 26 | 85 | 100 | 36 | 76 | 84 | 86 | kinase still bound, per cent of control (CDK14 (human)): 90%; kinase still bound, per cent of control (CAMK2G (human)): 83%; kinase still bound, per cent of control (HIPK1 (human)): 84%; kinase still bound, per cent of control (MAP3K3 (human)): 74%; kinase still bound, per cent of control (KIT (human)): 30%; kinase still bound, per cent of control (PLK4 (human)): 29%; kinase still bound, per cent of control (CLK3 (human)): 83%; kinase still bound, per cent of control (AURKA (human)): 100%; kinase still bound, per cent of control (STK17A (human)): 100%; kinase still bound, per cent of control (CDK8 (human)): 94%; kinase still bound, per cent of control (TNIK (human)): 32%; kinase still bound, per cent of control (LRRK2 (human)): 80%; kinase still bound, per cent of control (RPS6KB1 (human)): 65%; kinase still bound, per cent of control (PLK1 (human)): 0.1%; kinase still bound, per cent of control (PAK7 (human)): 98%; kinase still bound, per cent of control (PRKCI (human)): 72%; kinase still bound, per cent of control (DCLK1 (human)): 49%; kinase still bound, per cent of control (CAMK2A (human)): 76%
2 | C[C@@H](Oc1cc(-c2cnn(C3CCNCC3)c2)cnc1N)c1c(Cl)ccc(F)c1Cl | 46 | 100 | 100 | 92 | 62 | 56 | 47 | 88 | 1.4 | 37 | 0 | 6 | 100 | 100 | 64 | 100 | 7.1 | 100 | 0.2 | 89 | kinase still bound, per cent of control (TSSK1B (human)): 40%; kinase still bound, per cent of control (CIT (human)): 62%; kinase still bound, per cent of control (CDK14 (human)): 92%; kinase still bound, per cent of control (CAMK2G (human)): 100%; kinase still bound, per cent of control (HIPK1 (human)): 78%; kinase still bound, per cent of control (KIT (human)): 43%; kinase still bound, per cent of control (PLK4 (human)): 0.1%; kinase still bound, per cent of control (STK17A (human)): 100%; kinase still bound, per cent of control (CDK8 (human)): 100%; kinase still bound, per cent of control (TNIK (human)): 51%; kinase still bound, per cent of control (LRRK2 (human)): 97%; kinase still bound, per cent of control (RPS6KB1 (human)): 1.8%; kinase still bound, per cent of control (PLK1 (human)): 83%; kinase still bound, per cent of control (PAK7 (human)): 49%; kinase still bound, per cent of control (PRKCI (human)): 35%; kinase still bound, per cent of control (DCLK1 (human)): 2%; kinase still bound, per cent of control (CAMK2A (human)): 100%
3 | NC(=O)Nc1cc(-c2cccc(F)c2)sc1C(=O)N[C@@H]1CCCNC1 | 1.3 | 100 | 1.9 | 12 | 84 | 24 | 0.95 | 88 | 2.9 | 0.2 | 0 | 0 | 8.2 | 87 | 34 | 29 | 1.4 | 74 | 27 | 0.5 | kinase still bound, per cent of control (TSSK1B (human)): 2.6%; kinase still bound, per cent of control (CIT (human)): 0.2%; kinase still bound, per cent of control (CDK14 (human)): 100%; kinase still bound, per cent of control (CAMK2G (human)): 24%; kinase still bound, per cent of control (HIPK1 (human)): 7.2%; kinase still bound, per cent of control (MAP3K3 (human)): 0%; kinase still bound, per cent of control (PLK4 (human)): 0%; kinase still bound, per cent of control (CLK3 (human)): 62%; kinase still bound, per cent of control (AURKA (human)): 22%; kinase still bound, per cent of control (STK17A (human)): 0.55%; kinase still bound, per cent of control (CDK8 (human)): 71%; kinase still bound, per cent of control (TNIK (human)): 0.1%; kinase still bound, per cent of control (LRRK2 (human)): 4%; kinase still bound, per cent of control (RPS6KB1 (human)): 6.4%; kinase still bound, per cent of control (PLK1 (human)): 33%; kinase still bound, per cent of control (PAK7 (human)): 0%; kinase still bound, per cent of control (PRKCI (human)): 11%; kinase still bound, per cent of control (DCLK1 (human)): 2.4%; kinase still bound, per cent of control (CAMK2A (human)): 3.6%
4 | O=C1NC(=O)/C(=C/c2ccc3nccc(-c4ccncc4)c3c2)S1 | 81 | 0 | 87 | 1.2 | 59 | 47 | 41 | 16 | 13 | 57 | 0.1 | 73 | 97 | 3.2 | 50 | 18 | 52 | 89 | 77 | 56 | kinase still bound, per cent of control (TSSK1B (human)): 2.2%; kinase still bound, per cent of control (CIT (human)): 4.4%; kinase still bound, per cent of control (CDK14 (human)): 37%; kinase still bound, per cent of control (CAMK2G (human)): 28%; kinase still bound, per cent of control (HIPK1 (human)): 6.9%; kinase still bound, per cent of control (MAP3K3 (human)): 75%; kinase still bound, per cent of control (PLK4 (human)): 40%; kinase still bound, per cent of control (CLK3 (human)): 0.05%; kinase still bound, per cent of control (AURKA (human)): 69%; kinase still bound, per cent of control (STK17A (human)): 0.2%; kinase still bound, per cent of control (CDK8 (human)): 7.3%; kinase still bound, per cent of control (TNIK (human)): 36%; kinase still bound, per cent of control (LRRK2 (human)): 62%; kinase still bound, per cent of control (RPS6KB1 (human)): 53%; kinase still bound, per cent of control (PLK1 (human)): 26%; kinase still bound, per cent of control (PAK7 (human)): 91%; kinase still bound, per cent of control (PRKCI (human)): 67%; kinase still bound, per cent of control (DCLK1 (human)): 77%; kinase still bound, per cent of control (CAMK2A (human)): 4.8%
